Test results: the METLIN SMRT retention time set (Domingo-Almenara et al. 2019)

Assay: gradient 5% acetonitrile 3 min, to 50% in 2 min, to 85% in 15 min, held 3 min, 100 µL/min
Conditions: column: Zorbax Extend-C18 2.1 x 50 mm; eluents: water / acetonitrile, 0.1% formic acid
Procedure, shortened: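 Data were gathered over 3 months by HPLC coupled to a quadrupole time-of-flight mass spectrometer, operated in positive and negative ionization mode. Mixtures of ~100 pure standards ran on a Zorbax Extend-C18 column (2.1 × 50 mm, 1.8 μm) at 100 μL/min, with water and acetonitrile each containing 0.1% formic acid and dead and dwell volumes of 40 μL and 900 μL. Retention time was read from adduct peaks picked by computer and checked manually.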

Row | SMILES | RP-LC retention time
1 | CC(C)c1nc2c(c(=O)n1CC(=O)NCc1ccccc1)CN(Cc1ccccc1)CC2 | 659 s
2 | CCc1ccc(N2C(=O)CN(Cc3ccc(OC)cc3)[C@H]3CS(=O)(=O)C[C@H]32)cc1 | 866 s
3 | COc1ccc(Nc2c(C(=O)N3CCCC3)cnc3nc(C)ccc23)cc1OC | 906 s
4 | COc1ccc(CN2CCC(NC(=O)c3ccc(C#N)cc3)C2)cn1 (stereo not given) | 566 s
5 | COc1ccc(-c2nnc(-c3ccccc3)o2)cc1S(=O)(=O)N1CCC(C)CC1 | 1090 s
6 | Cc1cc(N2CCN(C(=O)CCc3ccccc3)CC2)nc2nncn12 | 616 s
7 | CC(=O)O[C@]1(C(C)=O)CC[C@H]2[C@@H]3CCC4=CC(=O)CCC4=C3[C@@H](c3ccc(N(C)C)cc3)C[C@@]21C | 874 s
8 | CC(C)n1cc2cc(C(=O)N3CCN(Cc4ccc5c(c4)OCO5)CC3)sc2c1 | 696 s
9 | CN(C1CCc2nn(CC3CC3)c(=O)n2CC1)S(=O)(=O)c1ccc(C#N)cc1 (stereo not given) | 743 s
10 | Cc1ccccc1CNC(=O)C1(C)CCCN(C(=O)Nc2ccccc2C)C1 (stereo not given) | 959 s
11 | Cn1cc(C(=O)O)c(S(=O)(=O)N2CCOCC2)n1 | 576 s
12 | Fc1ccccc1-c1nn2c(CSc3ccccc3)nnc2s1 | 981 s
13 | O=C(Nc1cc(-c2ccccn2)no1)c1cccc(Cl)c1 | 870 s
14 | Cc1ccc(CNC(=O)Cn2c(=O)nc(N3CCC(C)CC3)c3ccccc32)cc1 | 860 s
15 | COc1ccccc1CNC(=O)c1nnc(-c2ccc(S(=O)(=O)N3CCOCC3)cc2)o1 | 858 s
16 | O=C(NC1CCCCC1)C1CCN(c2nc3ccc(-c4cncnc4)nc3s2)CC1 | 830 s
17 | CCC1CCCCN1c1nc(-c2ccc([N+](=O)[O-])cc2)nc2ccccc12 (stereo not given) | 1030 s
18 | O=C(NCc1cccs1)C1CCN(C(=O)c2ncn3c2COC(c2ccccc2)C3)CC1 (stereo not given) | 725 s
19 | COCc1nc(CCNS(=O)(=O)c2ccc(OC)cc2)no1 | 731 s
20 | CC(=O)N1CCc2cc(CNS(=O)(=O)c3ccccc3Cl)ccc21 | 763 s
21 | O=C(O)CCC(=O)Nc1sc2c(c1C(=O)Nc1ccccc1)CCC2 | 902 s
22 | CCOc1ccc(NC(=O)N(Cc2cccs2)C2CCN(CC)CC2)cc1 | 653 s

Row | SMILES | RP-LC retention time
23 | CCn1c(C(=O)N2CCN(c3ccccc3F)CC2)cc2c(-c3cccs3)nn(-c3ccccc3)c21 | 1270 s
24 | NS(=O)(=O)c1ccc(CCNc2nnnc3c2cnn3-c2ccccc2)cc1 | 814 s
25 | Cn1cnc(S(=O)(=O)N2CCC(C(=O)NCc3cccs3)CC2)c1 | 640 s
26 | CC(=O)N1CCc2cc(N3CC(C(=O)Nc4ccc(F)cc4F)CC3=O)ccc21 (stereo not given) | 688 s
27 | COc1cc(OC)cc(C2(C#N)CCN(C)CC2)c1 | 665 s
28 | Cn1cc(-c2cc3n(n2)CCC(=O)N3CC(=O)NCCCN2CCCC2=O)c2ccccc21 | 657 s
29 | CCOc1ccccc1CNS(=O)(=O)c1ccc(-c2c(C)noc2C)cc1 | 995 s
30 | O=C(Cc1ccccc1)N1CCN(c2cc(-c3ccccc3)[nH]n2)CC1 | 774 s
31 | CCN1CCN(c2ccc(NC(=O)c3cc(Cl)ccc3F)cn2)C1=O | 747 s
32 | CCOc1ccccc1C(=O)NCC1CCN(Cc2ccccn2)CC1 | 561 s
33 | COc1ccc(-c2nc(C(=O)N3CCN(C)CC3)sc2-c2ccc(OC)cc2)cc1 | 748 s
34 | COc1cccc(-n2c(=O)c3sccc3n(Cc3nc(-c4ccc(C(C)(C)C)cc4)no3)c2=O)c1 | 1220 s
35 | Cc1nn(C)c(C)c1CNC(=O)C1CCN(c2nnc3ccccn23)CC1 | 515 s
36 | COc1ccccc1CNC(=O)Cn1c(=O)cc(-c2nc(C)no2)c2ccccc21 | 836 s
37 | O=C(Nc1cc(F)ccc1F)c1cc2sccc2n1Cc1ccc(Cl)cc1 | 1280 s
38 | O=C(Nc1nnc(-c2cc(Cl)sc2Cl)o1)c1ccc([N+](=O)[O-])o1 | 866 s
39 | CCc1nc2c(c(=O)n1CC(=O)NC1CCCC1)CN(Cc1ccccc1)CC2 | 621 s
40 | O=C(NCCn1ccc2ccccc21)C(=O)c1cn(CC(=O)N2CCOCC2)c2ccccc12 | 871 s
41 | Cc1ccc(C)c(N2CCN(C(=O)c3csc(C(=O)NC4CC4)n3)CC2)c1 | 968 s
42 | CCOc1ccc(-c2noc(N3CCC(C(=O)NCC4CCCO4)CC3)n2)cc1OC (stereo not given) | 749 s
43 | CCOC(=O)c1sc(NC(=O)c2cccc([N+](=O)[O-])c2)nc1-c1ccccc1 | 1100 s
44 | O=C(c1noc2ccc(S(=O)(=O)N3CCN(c4ccccn4)CC3)cc12)N1CCCC1 | 677 s

Row | SMILES | RP-LC retention time
45 | O=C(Nc1ccc(F)c(Cl)c1)c1cn2c(n1)CCCC2 | 648 s
46 | O=C(Nc1ccc(F)cc1)c1c(O)c2cccnc2n(-c2ccc(F)cc2)c1=O | 1200 s
47 | Cn1cc(-c2ccccc2)c2c1c(=O)n(C)c1nn(Cc3nc(-c4ccccc4)no3)c(=O)n21 | 1040 s
48 | Cc1nc(NC(=O)Cn2nc(-n3cccn3)ccc2=O)sc1C(=O)N(C)C | 585 s
49 | O=C(Nc1cc(F)ccc1F)N1CCCC1c1nncn1-c1ccccc1 (stereo not given) | 717 s
50 | CCn1ccc(C(=O)NCc2cccnc2Oc2ccccc2)n1 | 705 s
51 | CCOc1ccc(-c2noc(CN3N=NC4C(=O)N(c5ccc(C(C)C)cc5)C(=O)C43)n2)cc1OC (stereo not given) | 1060 s
52 | Cc1cc(N2CCN(C)CC2)nc2ccc(NC(=O)CCC(=O)NCCc3ccc(Cl)cc3)cc12 | 581 s
53 | COc1ccc(NC(=O)C2CCN(S(=O)(=O)c3cc4c(cc3C)NC(=O)CO4)CC2)cc1OC | 712 s
54 | CCC(=O)NC(C)c1nc(-c2ccccc2Cl)no1 (stereo not given) | 740 s
55 | CCCN1C(=O)c2c(C(=O)NCc3ccc(C)cc3)ncn2CC1(C)C(=O)NC1CCCC1 (stereo not given) | 848 s
56 | Cc1ccc(C)c(NC(=O)N2CCN(CCn3c(-c4ccncc4)nc4cccnc43)CC2)c1 | 608 s
57 | Cn1cc(CCNC(=O)CSc2ccccc2)c2cccnc21 | 686 s
58 | CN1CCC(OC2CCN(C(=O)c3ccc(Br)o3)CC2)CC1 | 597 s
59 | COc1ccc(Nc2ncnc3[nH]ncc23)c(OC)c1 | 568 s
60 | O=S(=O)(NC1CCCCC1)c1ccc(-c2nnc(C3CCC3)o2)o1 | 968 s
61 | O=C1NCCOc2ccc(NS(=O)(=O)c3ccc(F)c(Cl)c3)cc21 | 685 s
62 | COc1cccc(-c2noc(C3CCCN3C(=O)Nc3ccc(OC)c(Cl)c3)n2)c1 (stereo not given) | 974 s
63 | Cc1cc(-c2nnc(-c3ccccc3)o2)c(C)n1CC(=O)Nc1ccc(Cl)cc1 | 1020 s
64 | Cc1cccc(-c2nnc(-c3cc(S(=O)(=O)N4CCCC4)ccc3Cl)o2)c1 | 1110 s
65 | CC(=O)N1CCC(C(=O)N2CCCn3cc(-c4ccccc4)nc32)CC1 | 602 s
